We go through two molecules from patent US20070117770A1, “Human ribosomal DNA (rDNA) and ribosomal RNA (rRNA) nucleic acids and uses thereof” (Cylene Pharmaceuticals, Inc., priority 2005, published 2007).

Holding throughout (test): Protein kinase inhibition assay
Assay [1] deals with Abl(T315I)(h) (Homo sapiens, UniProt P00519, T315I). The class given is biochemical. The note with it: read-out: percent residual activity of Abl(T315I)(h). On the procedure:
(§1) Certain compounds were tested for activity in protein kinase inhibition assays. All substrates were dissolved and diluted to working stocks in de-ionized water, apart from histone H1 (10× working stock in 20 mM MOPS pH 7.0), PDKtide (10× working stock in 50 mM Tris pH 7.0) ATF2 (which is typically stored at a 20× working stock in 50 mM Tris pH 7.5, 150 mM NaCl, 0.1 mM EGTA, 0.03% Brij-35, 50% glycerol, 1 mM benzamidine, 0.2 mM PMSF and 0.1% R-mercaptoethanol), KKLNRTLSFAEPG (SEQ ID NO:203) and RRRLSFAEPG (SEQ ID NO:204) (50 mM HEPES pH 7.4) and GGEEEEYFELVKKKK (SEQ ID NO:205) (20 mM MOPS pH 7.0). All kinases were pre-diluted to a 10× working concentration prior to addition into the assay. The composition of the dilution buffer for each kinase is detailed below.
(§2) In a final reaction volume of 25 μl, Abl (T3151) (h) (5-10 mU) is incubated with 8 mM MOPS pH 7.0, 0.2 mM EDTA, 50 μM EAIYAAPFAKKK (SEQ ID NO:206), 10 mM MgAcetate and [gamma-33P-ATP] (specific activity approx. 500 cpm/pmol, concentration as required). The reaction is initiated by the addition of the MgATP mix. After incubation for 40 minutes at room temperature, the reaction is stopped by the addition of 5 μl of a 3% phosphoric acid solution. 10 μl of the reaction is then spotted onto a P30 filtermat and washed three times for 5 minutes in 75 mM phosphoric acid and once in methanol prior to drying and scintillation counting.

The target of assay [2] is Rsk3(h) (Homo sapiens, UniProt Q15349). The assay is classed as biochemical. The following applies: read-out: percent residual activity of Rsk3(h). On the procedure: as §1
as §2, with “μl, Rsk3” for “μl, Abl (T3151)”, “EDTA, 30” for “EDTA, 50”, “μM KKKNRTLSVA” for “μM EAIYAAPFAKKK”, “ID NO:212),” for “ID NO:206),”

The subject of assay [3] is CK1(y). The class given is biochemical, yeast. The following applies: 2.5 μM. The protocol:
as §1
as §2, with “25 μl, CK1 (y) (5-10 mU)” for “25 μl, Abl (T3151) (h) (5-10 mU)”, “mM EDTA, 200 μM KRRRALS(p)VASLPGL” for “mM EDTA, 50 μM EAIYAAPFAKKK”, “200 μM KRRRALS(p)VASLPGL (SEQ ID” for “50 μM EAIYAAPFAKKK (SEQ ID”, “(SEQ ID NO:214), 10 mM” for “(SEQ ID NO:206), 10 mM”, “of 5 μL of a” for “of 5 μl of a”

Assay [4] concerns the target EphA2(h) (Homo sapiens, UniProt P29317). The class given is biochemical. The following applies: read-out: percent residual activity of EphA2(h). The protocol:
as §1
as §2, with “EphA2” for “Abl (T3151)”, “0.1 mg/ml poly(Glu, Tyr) 4:1,” for “50 μM EAIYAAPFAKKK (SEQ ID NO:206),”, “Filtermat A” for “P30 filtermat”

The target of assay [5] is ALK4(h) (Homo sapiens, UniProt P36896). The assay is classed as biochemical. The following applies: read-out: percent residual activity of ALK4(h). On the procedure: as §1
as §2, with “ALK4” for “Abl (T3151)”, “2 mg/ml casein,” for “50 μM EAIYAAPFAKKK (SEQ ID NO:206),”

For assay [6], the target named is Snk(h) (Homo sapiens, UniProt Q9NYY3). The class given is biochemical. The following applies: read-out: percent residual activity of Snk(h). On the procedure: as §1
as §2, with “Snk” for “Abl (T3151)”, “2 mg/ml casein,” for “50 μM EAIYAAPFAKKK (SEQ ID NO:206),”

Rsk3(h), sequence (Q15349 whole entry): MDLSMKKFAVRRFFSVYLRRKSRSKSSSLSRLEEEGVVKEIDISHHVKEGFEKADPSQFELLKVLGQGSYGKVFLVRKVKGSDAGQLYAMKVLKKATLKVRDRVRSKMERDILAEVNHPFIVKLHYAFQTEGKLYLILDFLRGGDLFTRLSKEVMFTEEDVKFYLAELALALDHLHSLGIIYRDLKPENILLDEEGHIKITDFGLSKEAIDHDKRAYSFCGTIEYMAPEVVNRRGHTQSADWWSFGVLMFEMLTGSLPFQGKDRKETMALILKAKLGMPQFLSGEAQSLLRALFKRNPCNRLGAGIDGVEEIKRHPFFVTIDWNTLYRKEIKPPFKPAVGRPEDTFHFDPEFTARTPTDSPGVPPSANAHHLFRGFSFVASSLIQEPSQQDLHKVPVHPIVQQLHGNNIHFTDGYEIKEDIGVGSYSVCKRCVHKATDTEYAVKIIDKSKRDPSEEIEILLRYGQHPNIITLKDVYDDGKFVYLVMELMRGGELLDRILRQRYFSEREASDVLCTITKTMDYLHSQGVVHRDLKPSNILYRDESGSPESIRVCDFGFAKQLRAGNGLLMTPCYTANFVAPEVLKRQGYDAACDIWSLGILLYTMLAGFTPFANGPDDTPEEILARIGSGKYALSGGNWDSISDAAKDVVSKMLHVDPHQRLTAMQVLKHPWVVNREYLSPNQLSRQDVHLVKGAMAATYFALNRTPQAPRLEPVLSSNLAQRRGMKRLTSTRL
EphA2(h), sequence (P29317 24-976): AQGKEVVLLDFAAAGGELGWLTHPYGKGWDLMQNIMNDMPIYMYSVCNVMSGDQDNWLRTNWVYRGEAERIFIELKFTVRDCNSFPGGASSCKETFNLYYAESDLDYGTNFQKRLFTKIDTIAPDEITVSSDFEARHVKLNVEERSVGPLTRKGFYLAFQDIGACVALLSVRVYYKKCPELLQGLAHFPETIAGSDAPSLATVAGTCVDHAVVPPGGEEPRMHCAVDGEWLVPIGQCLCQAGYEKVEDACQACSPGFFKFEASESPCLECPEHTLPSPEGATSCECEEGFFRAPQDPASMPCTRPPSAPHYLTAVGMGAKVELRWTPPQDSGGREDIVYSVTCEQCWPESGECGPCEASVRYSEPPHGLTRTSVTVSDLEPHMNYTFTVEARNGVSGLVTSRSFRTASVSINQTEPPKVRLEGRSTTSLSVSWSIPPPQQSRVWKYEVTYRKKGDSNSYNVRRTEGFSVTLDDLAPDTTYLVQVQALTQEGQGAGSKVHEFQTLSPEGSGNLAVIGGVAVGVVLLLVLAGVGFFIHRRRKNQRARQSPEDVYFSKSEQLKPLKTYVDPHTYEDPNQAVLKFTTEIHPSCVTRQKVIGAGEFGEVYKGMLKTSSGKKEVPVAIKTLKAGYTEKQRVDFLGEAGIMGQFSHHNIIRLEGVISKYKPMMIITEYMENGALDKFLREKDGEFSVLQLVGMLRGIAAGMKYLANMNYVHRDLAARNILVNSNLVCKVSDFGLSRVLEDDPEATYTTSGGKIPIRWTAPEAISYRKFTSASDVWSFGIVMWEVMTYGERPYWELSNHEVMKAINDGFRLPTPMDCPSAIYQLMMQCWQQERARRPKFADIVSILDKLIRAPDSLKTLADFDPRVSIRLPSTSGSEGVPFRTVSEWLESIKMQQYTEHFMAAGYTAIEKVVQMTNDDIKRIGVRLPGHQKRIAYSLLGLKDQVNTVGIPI
ALK4(h), sequence (P36896 24-505): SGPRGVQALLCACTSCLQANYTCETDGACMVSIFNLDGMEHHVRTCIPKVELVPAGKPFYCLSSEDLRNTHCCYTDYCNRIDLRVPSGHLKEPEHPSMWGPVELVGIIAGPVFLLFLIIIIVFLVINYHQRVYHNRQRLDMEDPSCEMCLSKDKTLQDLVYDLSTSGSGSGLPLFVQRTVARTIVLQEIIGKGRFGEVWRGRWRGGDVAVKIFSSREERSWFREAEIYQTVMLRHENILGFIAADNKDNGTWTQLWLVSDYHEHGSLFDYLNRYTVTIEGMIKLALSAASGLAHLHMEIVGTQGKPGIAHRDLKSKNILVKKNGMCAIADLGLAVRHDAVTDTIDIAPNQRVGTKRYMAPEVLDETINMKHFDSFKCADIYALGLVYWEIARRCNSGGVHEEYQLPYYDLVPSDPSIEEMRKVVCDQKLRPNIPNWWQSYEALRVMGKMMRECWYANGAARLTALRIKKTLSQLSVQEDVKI
Snk(h), sequence (Q9NYY3 whole entry): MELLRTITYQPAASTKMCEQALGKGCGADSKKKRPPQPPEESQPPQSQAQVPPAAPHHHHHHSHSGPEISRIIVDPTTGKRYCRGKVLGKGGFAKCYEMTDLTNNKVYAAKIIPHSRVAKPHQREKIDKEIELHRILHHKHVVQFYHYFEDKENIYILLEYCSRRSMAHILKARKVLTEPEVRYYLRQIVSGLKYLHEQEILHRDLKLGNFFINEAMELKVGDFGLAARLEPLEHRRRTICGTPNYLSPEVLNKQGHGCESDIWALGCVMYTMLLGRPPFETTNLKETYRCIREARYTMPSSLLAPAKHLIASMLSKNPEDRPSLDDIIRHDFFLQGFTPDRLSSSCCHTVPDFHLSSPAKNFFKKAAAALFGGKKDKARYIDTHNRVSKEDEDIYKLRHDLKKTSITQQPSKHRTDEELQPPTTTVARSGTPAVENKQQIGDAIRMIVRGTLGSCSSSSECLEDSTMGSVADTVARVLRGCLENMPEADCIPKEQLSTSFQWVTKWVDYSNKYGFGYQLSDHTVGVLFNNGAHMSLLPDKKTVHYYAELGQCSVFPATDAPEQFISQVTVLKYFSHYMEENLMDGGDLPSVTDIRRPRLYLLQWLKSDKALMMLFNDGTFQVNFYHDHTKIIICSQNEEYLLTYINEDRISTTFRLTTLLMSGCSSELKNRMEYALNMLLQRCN

Turning to `CN1CCCC1CCNC(=O)c1cn2c3c(c(N4CCC(c5cnccn5)C4)c(F)cc3c1=O)Oc1cc3ccccc3cc1-2` (stereo not drawn) [Compound A-1], the remaining activity at 2.5 µM in assay [1] was determined as 52%; in assay [2] it was 89%; in assay [4], 101%; in assay [5] it was 108%; in assay [6] it was 125%. Further, in assay [3], the “percent residual activity of CK1(y)” value amounted to 78%.
Take `CC(=O)N1CCN(c2ccc3c(=O)c(C(=O)NCCN4CCCC4)c4n(C)c5ccccc5n4c3n2)CC1` [Compound B-1]: the remaining activity at 2.5 µM was 106% in assay [1]; 107% in assay [2]; 102% in assay [4]; 103% in assay [5]; 125% in assay [6]. In addition, the “percent residual activity of CK1(y)” value in assay [3] was 77%.
